Series [1] concerns SUDHL5. Nature of the series: Induction of cytotoxicity (CellTiter-Glo, 5 h), SUDHL5. In general terms: In ATP-based viability assays light output follows the ATP content of the culture.
The test system of series [2] is SUDHL10. Nature of the series: Induction of caspase-3/7 activity (Caspase-Glo 3/7), SUDHL10. In kind it is cell-based. As to conditions: caspase-3/7 induction, SUDHL10 cells, 3 h treatment, median. In outline: (§1)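 DLBCL cells treated with compounds for 3 h at 37 °C, then caspase-3/7 activity read by Caspase-Glo 3/7 luminescence. Medium-only background subtracted; EC50 fitted with C0 fixed at 1 and top set to the reference compound's maximal induction.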

For series [3], the system named is SUDHL10. Nature of the series: Induction of cytotoxicity (CellTiter-Glo, 5 h), SUDHL10.
Series [4] concerns the target MCL-1 (Homo sapiens, UniProt Q07820). In words: Protein-protein interaction assay MCL-1/Noxa BH3 peptide (MCL-1 assay), TR-FRET. The format is binding. As to conditions: MBP-MCL-1 / Noxa BH3-derived peptide, median. In outline: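 TR-FRET, 665/622 nm emission ratio (excitation 330–350 nm), measured MCL-1/Noxa complex formation. 1 nM MBP-MCL-1, 50 mM Tris/HCl pH 7, 0.1% BGG, 2 mM DTT. Incubation 1 h at 22 °C, then overnight at 4 °C. IC50 by 4-parameter regression, normalized to DMSO (0%) and no-MCL-1 (100%) controls.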

For series [5], the system named is MV-4-11. Nature of the series: Anti-proliferative effect (CellTiter-Glo, 72 h), MV-4-11. As to conditions: MV-4-11 cells, median, read-out: IC50 antiproliferation assay MV-4-11 [M] (median). In kind it is cell-based. The method, then: Assessment of the Anti-Proliferative Effect of Compounds in Different Cell Lines
The impact of compounds on the proliferation of different cell lines was assessed using the CellTiter-Glo® Luminescent Cell Viability reagent from Promega (G7573). Of note, SUDHL10 and SUDHL5 (DLBCL), NCI-H929 (Multiple Myeloma), A2780 (ovarian carcinoma) as well as MV-4-11(AML) cells are sensitive to MCL-1 inhibition.
In parallel, cells were plated in a reference (day 0) plate for time zero determination.
Rim wells were excluded. The cells were incubated for 72 h hours in a humidified incubator at 37° C. The day 0 plate was measured by adding 30 μl/well of CTG solution (CellTiter-Glo® Luminescent Cell Viability reagent, Promega G7573) to time zero wells in the reference plate followed by a 10 minutes incubation and luminescence reading at 0.1 ms, using the PHERAstar FS microplate reader (BMG Labtech).
After 72 h incubation, the treated plates were measured in the same way as the day 0 plate mentioned above.

In series [6] the test system is A2780. In words: Anti-proliferative effect (CellTiter-Glo, 72 h), A2780. In kind it is cell-based. To be noted: A2780 cells, median, read-out: IC50 antiproliferation assay A2780 [M] (median). The gist of the method:
(§2)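 Cells were treated with compounds for 72 h at 37 °C in a humidified incubator, and viability was measured by CellTiter-Glo luminescence. A parallel day 0 plate, read the same way, gave the time zero baseline.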

The test system of series [7] is SUDHL5. In words: Induction of caspase-3/7 activity (Caspase-Glo 3/7), SUDHL5. The format is cell-based. To be noted: caspase-3/7 induction, SUDHL5 cells, 3 h treatment, median. The gist of the method:
as §1

Series [8] relates to SUDHL5. Nature of the series: Anti-proliferative effect (CellTiter-Glo, 72 h), SUDHL5. As to conditions: SUDHL5 cells, antiproliferation, 72 h incubation, median, read-out: Antiproli SUDHL5 [M] (median). The format is cell-based. The gist of the method:
as §2

[9] abbreviates: read-out: Cytotox SUDHL5 [M] (median), SUDHL5 cells, cytotoxicity induction, CellTiter-Glo, 5 h incubation, median.
Where [10] appears, read: read-out: Cytotox SUDHL10 [M] (median), SUDHL10 cells, cytotoxicity induction, CellTiter-Glo, 5 h incubation, median.
[11] abbreviates: read-out: Cytotox SUDHL5 [M] (median), SUDHL5 cells, cytotoxicity induction, CellTiter-Glo, 5 h, median.
The mark [12] stands for this setting: Homo sapiens, SU-DHL10, 5 h, read-out: Cytotox SUDHL10 [M] (median), SUDHL10 cells, cytotoxicity induction, CellTiter-Glo, 5 h, median.
The mark [13] stands for this setting: Homo sapiens, SU-DHL-5, 5 h, read-out: Cytotox SUDHL5 [M] (median), SUDHL5 cells, cytotoxicity induction, CellTiter-Glo, 5 h, median.
The mark [14] stands for this setting: read-out: Cytotox SUDHL10 [M] (median), SUDHL10 cells, cytotoxicity induction, CellTiter-Glo, 5 h, median.

Like-named read-outs stand apart in the source and are kept apart here.

Sequence of MCL-1 (Q07820 whole entry): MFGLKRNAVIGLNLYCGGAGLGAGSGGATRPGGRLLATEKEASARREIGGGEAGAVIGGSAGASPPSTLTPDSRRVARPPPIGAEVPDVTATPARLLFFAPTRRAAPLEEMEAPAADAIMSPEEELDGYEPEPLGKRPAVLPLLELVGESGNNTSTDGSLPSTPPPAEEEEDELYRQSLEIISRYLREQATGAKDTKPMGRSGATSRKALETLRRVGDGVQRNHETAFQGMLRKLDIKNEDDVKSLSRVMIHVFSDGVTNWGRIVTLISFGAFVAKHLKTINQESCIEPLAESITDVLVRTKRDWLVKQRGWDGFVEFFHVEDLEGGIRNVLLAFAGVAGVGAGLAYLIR

On to `Cc1nn(C)c2c1-c1cccc3c(CCCOc4cccc5ccccc45)c(C(=O)O)n(c13)CCCCN(C)C2` (single isomer, unassigned) [Example 239, (−)-1,3,15-trimethyl-7-[3-(naphthalen-1-yloxy)propyl]-1,10,11,12,13,14,15,16-octahydropyrazolo[4′,3′:4,5][1,7]diazacyclododecino[3,2,1-hi]indole-8-carboxylic Acid], for which the IC50 in series [1] (Homo sapiens, SU-DHL-5, 5 h, read-out: Cytotox SUDHL5 [M] (median), SUDHL5 cells, cytotoxicity induction, CellTiter-Glo, 5 h incubation, median) was > 3.3e-05 M; in series [3] (Homo sapiens, SU-DHL10, 5 h, read-out: Cytotox SUDHL10 [M] (median), SUDHL10 cells, cytotoxicity induction, CellTiter-Glo, 5 h incubation, median), 3.03e-05 M; in series [4] it was 0.0927 µM; in series [5] (Homo sapiens, MV4-11, 72 h) it was 1.07e-05 M; in series [6] (Homo sapiens, A2780, 72 h), 2.27e-05 M. Moreover, the EC50 in series [2] (Homo sapiens, SU-DHL10, 3 h) was > 33 µM; in series [7] (Homo sapiens, SU-DHL-5, 3 h), > 33 µM.

In the case of `CCc1nn(C)c2c1-c1c(C)ccc3c(C(C)CCOc4cccc5cc(F)ccc45)c(C(=O)O)n(c13)CCCCOC2` (single isomer, unassigned) [Example 265, 3-ethyl-7-{4-[(6-fluoronaphthalen-1-yl)oxy]butan-2-yl}-1,4-dimethyl-1,10,11,12,13,15-hexahydropyrazolo[4′,3′:9,10][1,6]oxazacycloundecino[8,7,6-hi]indole-8-carboxylic Acid], the IC50 in series [1] (setting [9]) is 2.09e-06 M; in series [3] (setting [10]), 7.35e-06 M; in series [4] it was 0.00585 µM; in series [5] (Homo sapiens, MV4-11, 72 h), 2.75e-06 M; in series [8] it was 2.58e-06 M. Moreover, the EC50 in series [2] was 10.1 µM; in series [7], 2.71 µM.

Consider `CN1CCCn2c(C(=O)O)c(CCCOc3cccc4ccccc34)c3cccc(c32)-c2c(nn(C)c2COc2ccc(N3CCN(S(=O)(=O)N(C)C)CC3)cc2)C1` (single isomer, unassigned; enantiomer 1) [Example 1-112, 11-({4-[4-(Dimethylsulfamoyl)piperazin-1-yl)phenoxy]methyl}-7,10-dimethyl-1-[3-(1-naphthyloxy)propyl]-4,5,6,7,8,10-hexahydropyrazolo[3′,4′:7,8][1,5]diazecino[9,10,1-hi]indole-2-carboxylic Acid (Enantiomer 1)], for which the IC50 in series [1] (setting [9]) amounted to 3.3e-06 M; in series [3] (setting [10]) it was 5.46e-06 M; in series [4], 0.012 µM; in series [5], 2.69e-06 M; in series [8] it was 2.72e-06 M. Further, the figures for the EC50 in series [2] and in series [7] were 3.34 µM and 2.32 µM, respectively.

`Cc1ccc2c(OCCCc3c(C(=O)O)n4c5c(cccc35)-c3c(nn(C)c3C)COCCCC4)cccc2c1` (single isomer, unassigned; enantiomer 1) [Example 308, 2,3-dimethyl-7-{3-[(6-methylnaphthalen-1-yl)oxy]propyl}-2,10,11,12,13,15-hexahydropyrazolo[4′3′:9,10][1,6]oxazacycloundecino[8,7,6-hi]indole-carboxylic Acid (Enantiomer 1)]: the IC50 in series [1] (setting [11]) is 5.61e-06 M; in series [3] (setting [12]), > 3.3e-05 M; in series [4] it was 0.00507 µM; in series [5] (Homo sapiens, MV4-11, 72 h), > 3.3e-05 M; in series [6] (Homo sapiens, A2780, 72 h), > 3.3e-05 M. Moreover, the EC50 in series [2] (Homo sapiens, SU-DHL10, 3 h) is > 33 µM; in series [7] it was 7.18 µM.

Take `Cc1c2c(nn1C)COCCCCn1c(C(=O)O)c(CCCOc3cccc4cc(C(F)(F)F)ccc34)c3cccc-2c31` (single isomer, unassigned; enantiomer 1) [Example 311, 2,3-dimethyl-7-(3-{[6-(trifluoromethyl)naphthalen-1-yl]oxy}propyl)-2,10,11,12,13,15-hexahydropyrazolo[4′,3′:9,10][1,6]oxazacycloundecino[8,7,6-hi]indole-8-carboxylic Acid (Enantiomer 1)]: the IC50 in series [1] (setting [13]) was 2.12e-05 M; in series [3] (setting [12]), 1.49e-05 M; in series [4], 0.543 µM; in series [5] (Homo sapiens, MV4-11, 72 h) it was 1.16e-05 M; in series [6] (Homo sapiens, A2780, 72 h) it was 1.11e-05 M. For the same molecule, the EC50 was > 33 µM in series [2] (Homo sapiens, SU-DHL10, 3 h) and > 33 µM in series [7] (Homo sapiens, SU-DHL-5, 3 h).

With `CCc1nn(C)c2c1-c1cccc3c(CCCOc4cccc5cc(C(F)(F)F)ccc45)c(C(=O)O)n(c13)CCCCOC2` (single isomer, unassigned; enantiomer 1) [Example 314, 3-ethyl-1-methyl-7-(3-{[6-(trifluoromethyl)naphthalen-1-yl]oxy}propyl)-1,10,11,12,13,15-hexahydropyrazolo[4′,3′:9,10][1,6]oxazacycloundecino[8,7,6-hi]indole-8-carboxylic Acid (Enantiomer 1)], the IC50 was 1.56e-05 M in series [1] (setting [13]); 2.09e-05 M in series [3] (setting [12]); 0.0335 µM in series [4]; 1.35e-05 M in series [5] (Homo sapiens, MV4-11, 72 h); 1.56e-05 M in series [6] (Homo sapiens, A2780, 72 h). The concentration for a half-maximal effect (EC50) in series [2] (Homo sapiens, SU-DHL10, 3 h) is > 33 µM; in series [7] (Homo sapiens, SU-DHL-5, 3 h), > 33 µM.

As for `CN1CCCn2c(C(=O)O)c(CCCOc3cccc4ccccc34)c3cccc(c32)-c2c(nn(C)c2COc2ccc(N3CCN(S(=O)(=O)N(C)C)CC3)cc2)C1` (single isomer, unassigned; enantiomer 2) [Example 1-113, 11-({4-[4-(Dimethylsulfamoyl)piperazin-1-yl]phenoxy}methyl)-7,10-dimethyl-1-[3-(1-naphthyloxy)propyl]-4,5,6,7,8,10-hexahydropyrazolo[3′,4′:7,8][1,5]diazecino[9,10,1-hi]indole-2-carboxylic Acid (Enantiomer 2)], the IC50 stood at 1.31e-05 M in series [1] (setting [9]); 2.06e-05 M in series [3] (setting [10]); 0.0277 µM in series [4]; 1.2e-05 M in series [5]; 1.05e-05 M in series [8]. Besides, the EC50 in series [2] is 9.08 µM; in series [7], 10.5 µM.

Take `Cc1ccc2c(OCCCc3c(C(=O)O)n4c5c(cccc35)-c3c(nn(C)c3C)COCCCC4)cccc2c1` (single isomer, unassigned; enantiomer 2) [Example 309, 2,3-dimethyl-7-{3-[(6-methylnaphthalen-1-yl)oxy]propyl}-2,10,11,12,13,15-hexahydropyrazolo[4′3′:9,10][1,6]oxazacycloundecino[8,7,6-hi]indole-8-carboxylic Acid (Enantiomer 2)]: the IC50 in series [1] (setting [11]) was > 3.3e-05 M; in series [3] (setting [14]) it was > 3.3e-05 M; in series [4] it was 0.133 µM; in series [5], > 3.3e-05 M; in series [6], > 3.3e-05 M. Also, the EC50 in series [2] and in series [7] was > 33 µM each time.

For the molecule `CCc1nn(C)c2c1-c1cccc3c(CCCOc4cccc5cc(C(F)(F)F)ccc45)c(C(=O)O)n(c13)CCCCOC2` (single isomer, unassigned; enantiomer 2) [Example 315, 3-ethyl-1-methyl-7-(3-{[6-(trifluoromethyl)naphthalen-1-yl]oxy}propyl)-1,10,11,12,13,15-hexahydropyrazolo[4′,3′:9,10][1,6]oxazacycloundecino[8,7,6-hi]indole-8-carboxylic Acid (Enantiomer 2)], the IC50 in series [1] (setting [11]) turned out to be 1.48e-05 M; in series [3] (setting [14]), 1.58e-05 M; in series [4] it was 0.919 µM; in series [5] it was 1.16e-05 M; in series [6], 8.63e-06 M. In addition, the EC50 in series [2] is 20.1 µM; in series [7] it was > 33 µM.

The EC50 is the concentration at which the effect is half-maximal. Lower therefore signals higher potency in that assay.

The values are drawn from US10981932B2, “Macrocyclic indole derivatives” (Bayer Aktiengesellschaft, priority 2016, dated 2021).
